Consider seven molecules from patent US20210283253A1, “COMPOSITIONS AND METHODS AGAINST P. AERUGINOSA INFECTIONS” (priority 2017, published 2021).

“Also recorded” adds a separate entry of the source.

Test [1] relates to P. aeruginosa. The following applies: cited from earlier work.
The subject of test [2] is Pseudomonas aeruginosa. In words: OPA with mAb/antibiotic combinations. Format: cell-based. The following applies: 90 minutes. How it is done:
The assay is performed in 96-well microtiter plates with 1% BSA in MEM as the assay diluent. The Leukemia-derived human cell-line HL-60 is used as source of neutrophils. Differentiation of HL-60 cells into neutrophils is induced by addition of 100 mM Dimethylformamide (DMF). Neutrophil morphology is verified by expression of CD11b/Mac-1 marker using FACS. Neutrophils are washed, re-suspended in assay diluent, counted and diluted to a density of 2.5×10^7 cells/ml. Opsonization is mediated by Rabbit sera complement, diluted in assay diluent for a final dilution factor of 1:60. Freshly grown log-phase Pseudomonas strains are re-suspended and diluted in assay diluent to achieve a final ratio of neutrophils to bacteria of 20:1 to 40:1. Dilutions of Aerucin™ from 5 μg/ml to 100 ng/ml are prepared in assay diluent along with a commercial human IgG1 at 5 μg/ml as negative control. Other negative controls include assay mixtures with certain components (complements, neutrophils, antibodies) absent.
Equal volumes (50 μl) of each component are added to assay wells in the order of: antibodies, complement, neutrophils then bacteria. The components are mixed using a multichannel pipette. Samples at time zero are taken, diluted and plated on agar plates for titer determination. Assay plates are then incubated at 37° C. with shaking for 90 minutes. Samples are again taken, diluted and plated on agar plates.
(§1) Bacteria titers (CFU/ml) are determined for time-zero and 90-minute samples from colony counts on agar plates after overnight incubation at 37° C. Percent kills are calculated as the difference in titer at 90 minutes from time-zero, divided by the titer at time-zero: […].
The assay is performed as described above except that equal volumes (50 μl) of each component are added to assay wells in the order of: antibodies, antibiotic, complement, neutrophils, and then bacteria. Bacteria titers (CFU/ml) are measured directly after mixing all components and after 90 minutes incubation. The read-out of the assay (% kill) is how well the drug or combination of drugs can kill bacteria over these 90 minutes.
Averages from three independent experiments are presented.
Minimum inhibitory concentrations (MICs) of the antibiotics used in the OPA assays had been determined upfront (data not shown). […] Data for bactericidal antibiotics Cefepime and Piperacillin was generated with 1×MIC, for Aztreonam (bactericidal) with ½ MIC.

The subject of test [3] is Pseudomonas aeruginosa. As to the kind of experiment: Opsonic phagocytosis assay (OPA) with Aerucin. It is filed as cell-based.
Description: FIG. 3. […] The opsonic phagocytosis assay (OPA) measures potency of antibodies based on the ability to initiate and mediate destruction of their specific targets by neutrophils. The assay utilizes purified complement from goat, rabbit, guinea pig or human sera, and neutrophils either isolated from whole blood or from differentiation of parental cell lines. Various concentrations of the antibody of interest, along with controls, are mixed with antigens. Complement serum and neutrophils are then added at certain ratios. After incubation to allow phagocytosis to occur, fractions of remaining antigens are then quantified by plating (bacteria) on agar plates to enumerate bacterial colonies remaining from the titer that was used at the start of the assay reaction. […]
The assay is performed in 96-well microtiter plates with 1% BSA in MEM as the assay diluent. […] Neutrophils are washed, re-suspended in assay diluent, counted and diluted to a density of 2.5×10^7 cells/ml. […]
as §1

Where [4] appears, read: 4 μg/ml antibiotic alone (Cefepime 1× MIC, Aztreonam ½ MIC).

With “Panobacumab: anti-P. aeruginosa serotype 011 lipopolysaccharide monoclonal antibody”, the “activity on a meropenem resistant P. aeruginosa strain” value in test [1] (meropenem resistant strain) is listed as “retained activity”. Moreover, in test [1] (neutropenic host), the “bacterial clearance from the lung” value is given as “enhanced bacterial clearance” and the lung inflammation entry was “significantly reduced lung inflammation”. Regarding `CCN1CCN(C(=O)N[C@@H](C(=O)N[C@@H]2C(=O)N3[C@@H]2SC(C)(C)[C@@H]3C(=O)O)c2ccccc2)C(=O)C1=O` [Piperacillin], the “% Kill” value in test [2] (8 μg/ml Piperacillin alone (1× MIC)) is ~40%. Take `O=C(O)c1cn(C2CC2)c2cc(N3CCNCC3)c(F)cc2c1=O` [Ciprofloxacin]: the “% Kill” value in test [2] (0.5 μg/ml Ciprofloxacin alone (2× MIC)) was “does not show bacterial killing”.

With `C[C@H]1[C@H](NC(=O)/C(=N\OC(C)(C)C(=O)O)c2csc(N)n2)C(=O)N1S(=O)(=O)O` [Aztreonam], in test [2] (setting [4]), the “% Kill” value was 60%. The same measure, in the same setting: the value for `CO/N=C(\C(=O)N[C@@H]1C(=O)N2C(C(=O)[O-])=C(C[N+]3(C)CCCC3)CS[C@H]12)c1csc(N)n1` [Cefepime] was 40%. Take Colistin: the “% Kill” value in test [2] (2 μg/ml Colistin alone (2× MIC)) was ~20%.

B1: Aerucin: anti-Pseudomonas aeruginosa MEP binding human monoclonal antibody; heavy chain variable SEQ ID NO: 5, light chain variable SEQ ID NO: 7 (antibody, listed as Homo sapiens, V domains shown)
VH: QLQLQESGPGLVKPTETLSLTCTVSGGPITYINYYWGWVRQPPGKGLEWIGSIHYDGSTFYNPSLKSRVTISGDTSKSEFSVKLSSVTAADTAVYYCARTYYDASGSPYFDHWGQGTLVTVSS
VL: QSVLTQPPSVSAAPGQKVSISCSGSSSNIGNNYVSWYQQLPGTAPNLLIYDNNKRPSGIPDRFSGSKSGTSATLDITGLQSGDEADYYCGTWDSSLSTWVFGGGTKLTVL
With B1, in test [3] (Aerucin 5 μg/ml to 100 ng/ml, rabbit complement, HL-60 neutrophils, 90 minutes), the “opsonic phagocytosis: killing over negative controls” value is reported as “significant increase in killing over negative controls in a dose-dependent manner”. The “killing of P. aeruginosa in the absence of complement” value in test [3] (OPA without complement, a number of Pa strains (Pa 2410, Pa 27853, Pa PGO2338)) is given as “killing of P. aeruginosa bacteria in the absence of complement; also recorded: killing was observed in the absence of complement”. For the same molecule, the “% Kill” value in test [2] (50 ng/ml Aerucin alone) is given as “around 5%”.
